The subject of assay [1] is human neutrophils. The assay can be described thus: Human neutrophil migration assay (embelin-induced). The assay is classed as cell-based.
In assay [2] the target is T1, GPR84 (Homo sapiens, UniProt Q9NQS5).
T1 construct: expressed in transfected cells; membranes used
As to conditions: Wang et al. (2006); WO 2007/027661A2; cited from earlier work.

Assay [3] concerns the target T1, GPR84. The assay can be described thus: GTPγS binding assay (GPR84). The assay is classed as biochemical. The note with it: membranes from stable cell line over expressing GPR84; 3,3′ di indolylmethane at EC80. In outline:
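Membranes (20 μg/well) from a stable GPR84-overexpressing line, pre-incubated with 0.1 μM GDP for 15 min at 4° C, mixed with 0.1 nM [35S]GTPγS and WGA SpA beads in 20 mM HEPES pH 7.4, 5 mM MgCl2, 250 mM NaCl, 0.05% BSA, 75 ug/mL saponin; 90 min at room temperature, then scintillation counting.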
Background: GTPγS is a poorly hydrolysed GTP analogue; its binding reports G protein activation.

For assay [4], the system named is human neutrophils. The assay can be described thus: Human neutrophil migration assay (embelin-induced). In kind it is cell-based. The note with it: neutrophils from human buffy coat, 30 min compound pre-incubation, migration towards embelin at EC80 for 1 h, ATPlite readout, read-out: human neutrophil migration inhibition (Neutrophils). On the procedure: 2. Cellular Assays 2.1. Human Neutrophil Migration Assay
The effect of agonists or antagonists for GPR84 can therefore be assayed in a neutrophil migration test. In the neutrophil migration assay, neutrophils, freshly isolated from buffy coats from human volunteers, are treated with a compound for 30 minutes. Subsequently, the neutrophils are transferred to the upper wells of a Corning HTS transwell 96 permeable support system, of which the lower wells are filled with a embelin solution at EC80 (concentration which gives 80% of the activity of GPR84). After 1 h of incubation, migration of the neutrophils towards embelin in the lower compartment can be quantified by measuring the ATP-content of the lower wells using the ATPlite luminescence ATP detection assay system (Perkin Elmer, Cat. No.: 436110).
A human buffy coat is diluted with an equal volume of ice cold DPBS. 20 mL of the diluted buffy coat is gently mixed with 4 mL of ACD buffer (140 mM citric acid, 200 mM sodium citrate and 220 mM dextrose). Then, 12 mL of the 6% dextran/0.9% NaCl solution (15 g dextran T2000 and 2.25 g NaCl dissolved in 250 mL H2O) is added to the mixture and the samples are inverted gently up to 20 times. The total volume was transferred to a new recipient and incubated at room temperature for 1 h for complete separation of the two phases to occur. The yellowish supernatant is then transferred to a clean centrifugation tube and centrifuged for 12 minutes at 1300 rpm and 4° C. After centrifugation, the supernatant is discarded and the remaining cell pellet is rapidly resuspended in 12 mL of ice-cold H2O for red blood cell lysis to occur. After 20 seconds, 4 mL of ice-cold 0.6 M KCl is added. Samples are mixed carefully and centrifuged for 6 minutes at 1300 rpm, 4° C. The supernatant is discarded and the red blood cell lysis procedure is repeated one more time. Subsequently, the cell pellet is resuspended in 4 mL of DPBS and layered over 5 mL of Lymphoprep (Nycomed Pharma, Cat. No.: 1114545) in a 15 mL centrifuge tube. After centrifugation for 12 min at 1300 rpm, 4° C., the supernatant is removed and the cell pellet, containing the neutrophils, is resuspended in 25 mL chemotaxis buffer (RPMI 1640 medium, supplemented with 10 mM HEPES; freshly made for each experiment)
A cell suspension of 8.9×10^6 cells per milliliter is prepared. 20 μL of compound solution in chemotaxis buffer is added to 180 μL cell suspension. The mixture is incubated at 37° C. for 30 minutes with intermediate resuspension of the cells after 15 minutes. Following this, 70 μL cell suspension is transferred to the upper compartment of a Corning HTS transwell 96 permeable support system with 5.0 μm pore size polycarbonate membrane (Corning, Cat. No.: 3387). The receiver well of the transwell system is then filled with 200 μL chemotaxis buffer containing compound and chemotactic agent (embelin). After incubation at 37° C. in 5% CO2 for 1 h, the upper plate of the transwell system is removed and the cell suspension in the receiver plate is transferred to a 96-well V-bottom plate. 50 μL of DPBS is added to the receiver plate to prevent remaining cells from drying out. The V-bottom plate is centrifuged for 6 minutes at 1500 rpm. The supernatant is removed and the cells are resuspended in 50 μL DPBS. The cells are then transferred back to the receiver plate of the transwell system. After this, 100 μL ATPlite solution (Perkin Elmer, Cat. No: 436110) was added to the cells. The plate is incubated for 10 minutes in the dark, while shaking. […] of cell lysate is then transferred to a white 96-well plate and luminescence is measured. The detected luminescent signal is considered as linearely related to the number of cells having migrated from the upper well to the receiver well.

The subject of assay [5] is RAW264.7 murine macrophage-like cells. As to conditions: RAW264.7 cells stimulated with LPS; cited from earlier work.

T1 sequence (Q9NQS5 whole entry): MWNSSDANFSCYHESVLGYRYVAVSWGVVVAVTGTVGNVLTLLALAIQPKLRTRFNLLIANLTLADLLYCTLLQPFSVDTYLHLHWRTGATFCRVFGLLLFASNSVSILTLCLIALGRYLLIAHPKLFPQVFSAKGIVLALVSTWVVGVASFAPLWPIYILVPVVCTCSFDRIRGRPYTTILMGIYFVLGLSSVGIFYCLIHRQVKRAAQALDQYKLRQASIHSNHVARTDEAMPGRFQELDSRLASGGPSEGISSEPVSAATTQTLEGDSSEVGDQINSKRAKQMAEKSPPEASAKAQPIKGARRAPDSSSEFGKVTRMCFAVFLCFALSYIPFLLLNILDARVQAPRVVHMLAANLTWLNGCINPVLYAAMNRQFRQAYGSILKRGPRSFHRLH

In the case of `c1ccc2c(Cc3c[nH]c4ccccc34)c[nH]c2c1` [3,3′ di indolylmethane], in the assay with human neutrophils [1], the “induction of neutrophil chemotaxis by GPR84 agonists” value was “induce neutrophil chemo taxis”.
`c1ccc2c(Cc3c[nH]c4ccccc34)c[nH]c2c1` [3,3′ di-indolylmethane]: at GPR84 [2], the GPR84 agonist activity result is reported as “some GPR84 agonist activity”.
`CC(O)CCCc1ccc2c(c1)CCn1c-2cc(OC[C@@H]2COCCO2)nc1=O` (stereo partly drawn) [Compound 150, 2-((S)-1-[1,4]dioxan-2-ylmethoxy)-9-(4-hydroxy-pentyl)-6,7-dihydro-pyrimido[6,1-a]isoquinolin-4-one]: the IC50 at GPR84 [3] lay within 101 to 500 nM; in the assay on human neutrophils [4] it was 0.01 to 100 nM.
Taken in the same sequence, the figures for `CC(C)(C)COc1ccc2c(c1)CCn1c-2cc(OC[C@@H]2COCCO2)nc1=O` [Compound 158, 9-(2,2-dimethyl-propoxy)-2-((S)-1-[1,4]dioxan-2-ylmethoxy)-6,7-dihydro-pyrimido[6,1-a]isoquinolin-4-one] were 101 to 500 nM and 0.01 to 100 nM.
The corresponding values for `O=c1nc(OC[C@@H]2COCCO2)cc2n1CCc1cc(OCC3CCOCC3)ccc1-2` [Compound 159, 2-((S)-1-[1,4]dioxan-2-ylmethoxy)-9-(tetrahydro-pyran-4-ylmethoxy)-6,7-dihydro-pyrimido[6,1-a]isoquinolin-4-one] are 0.01 to 100 nM and 0.01 to 100 nM.
For the compound `CC(C)(O)CCCc1ccc2c(c1)CCn1c-2cc(OC[C@@H]2COCCO2)nc1=O` [Compound 160, 2-((S)-1-[1,4]dioxan-2-ylmethoxy)-9-(4-hydroxy-4-methyl-pentyl)-6,7-dihydro-pyrimido[6,1-a]isoquinolin-4-one], the IC50 on GPR84 [3] and in the assay with human neutrophils [4] was 101 to 500 nM in each case.
Take `O=c1nc(OC[C@@H]2COCCO2)cc2n1CCc1cc(COCC3CCOCC3)ccc1-2` [Compound 161, 2-((S)-1-[1,4]dioxan-2-ylmethoxy)-9-(tetrahydro-pyran-4-ylmethoxymethyl)-6,7-dihydro-pyrimido[6,1-a]isoquinolin-4-one]: the IC50 on GPR84 [3] was in the range of 101 to 500 nM; in the assay with human neutrophils [4], 0.01 to 100 nM.
In the case of `COCCCc1ccc2c(c1)CCn1c-2cc(OC[C@H]2COCCO2)nc1=O` [Compound 168, 2-((R)-1-[1,4]Dioxan-2-ylmethoxy)-9-(3-methoxy-propyl)-6,7-dihydro-pyrimido[6,1-a]isoquinolin-4-one], the values for the IC50 at GPR84 [3] and in the assay with human neutrophils [4] were 101 to 500 nM and 0.01 to 100 nM, respectively.
Taken in the same sequence, the figures for `O=c1nc(OC[C@H]2COCCO2)cc2n1CCc1cc(CCC3(O)CCCC3)ccc1-2` [Compound 169, 2-((R)-1-[1,4]Dioxan-2-ylmethoxy)-9-[2-(1-hydroxy-cyclopentyl)-ethyl]-6,7-dihydro-pyrimido[6,1-a]isoquinolin-4-one] were 101 to 500 nM and 0.01 to 100 nM.
Taken in the same sequence, the figures for `CCCOCCOc1ccc2c(c1)CCn1c-2cc(OC[C@@H]2COCCO2)nc1=O` [Compound 170, 2-((S)-1-[1,4]Dioxan-2-ylmethoxy)-9-(2-propoxy-ethoxy)-6,7-dihydro-pyrimido[6,1-a]isoquinolin-4-one] were 0.01 to 100 nM and 0.01 to 100 nM.
As for `CC(C)OCCOc1ccc2c(c1)CCn1c-2cc(OC[C@@H]2COCCO2)nc1=O` [Compound 171, 2-((S)-1-[1,4]Dioxan-2-ylmethoxy)-9-(2-isopropoxy-ethoxy)-6,7-dihydro-pyrimido[6,1-a]isoquinolin-4-one], the IC50 on GPR84 [3] and with human neutrophils [4] was 0.01 to 100 nM in each case.
Turning to `COCCCCc1ccc2c(c1)CCn1c-2cc(OC[C@@H]2COCCO2)nc1=O` [Compound 174, 2-((S)-1-[1,4]Dioxan-2-ylmethoxy)-9-(4-methoxy-butyl)-6,7-dihydro-pyrimido[6,1-a]isoquinolin-4-one], the IC50 at GPR84 [3] and in the assay on human neutrophils [4] was 0.01 to 100 nM throughout.
On to `CCCCCCCCCC(=O)O` [capric acid], for which the “secretion of interleukin-12 p40 subunit (IL-12 p40)” value (“secretion” for short) in assay [5] is “dose dependently increased”.
Turning to `CCCCCCCCCCCC(=O)O` [lauric acid], in assay [5], the “secretion” value is “dose dependently increased”.
Turning to `CCCCCCCCCC(=O)[O-].[Na+]` [sodiumdecanoate], in the assay with human neutrophils [1], the “induction of neutrophil chemotaxis by GPR84 agonists” value is “induce neutrophil chemo taxis”.
For the compound `CCCCCCCCCCC(=O)O` [undecanoic acid], in assay [5], the “secretion” value is listed as “dose dependently increased”.

Source of the values: patent publication US10047083B2, “Dihydropyrimidinoisoquinolinones and pharmaceutical compositions thereof for the treatment of inflammatory disorders” (GALAPAGOS NV, priority 2011, dated 2018).
